The values that follow come from patent US20200289554A1, “BIOORTHOGONAL COMPOUNDS COMPRISING A PROPARGYL GROUP FOR TREATING CANCER” (THE UNIVERSITY COURT OF THE UNIVERSITY OF EDINBURGH, priority 2016, published 2020).

Molecules are shown by their SMILES.

In data set [1] the test system is BxPC3 cells. Put plainly: Prodrug safety dose-response cell viability (PrestoBlue), BxPC3. The format is cell-based. As to conditions: Homo sapiens, BXPC-3, 120 h, 5 days, no catalyst. The method, then: (§1) These cell lines were selected as these are primary malignancies against which the parental drugs are currently prescribed.
(§2) The toxicities of each active agent and prodrugs were compared by performing dose-response studies. […] Cell viability was analysed by fluoresce intensity (λex=540 nm; λem=590 nm) after 60-90 min incubation with PrestoBlue™ Reagent (Life Technologies).

The test system of data set [2] is HCT116 cells. Put plainly: Prodrug safety dose-response cell viability (PrestoBlue), HCT116. The format is cell-based. The following applies: Homo sapiens, HCT-116, 120 h, 5 days, no catalyst. On the procedure:
as §1, §2

The test system of data set [3] is BxPC3 cells. Nature of the data set: BOOM conversion: prodrug + Pd0-resins in cell culture, cell viability, BxPC3. The format is cell-based, human. The following applies: Pd0-resin 1 mg/mL, 3 μM prodrug. On the procedure:
(§3) Cell viabilities for each prodrug provided as a combination with palladium is presented in FIG. 16 in the right of each set of two bars. Data for prodrug in the absence of palladium catalyst is also provided (the left bar of each set of two bars) for comparison along with negative controls (from left to right: DMSO, Pd^0 and 5FU). Cells were incubated in tissue culture media containing 0.1% (v/v) DMSO and: Pd^0-resins (1 mg/mL, negative control); 3 μM (for BxPC3 cells) or 30 μM (for HCT116 cells) of prodrug (negative control); and Pd^0-resins (1 mg/mL)+3 μM (BxPC3) or 30 μM (HCT116) of each prodrug (BOOM reaction assay). […]
(§4) Following 5 days treatment, cells were incubated with PrestoBlue™ Cell Viability Reagent (Life Technologies) for 90 min. Fluorescence intensity values were related to the untreated cells (100% cell viability). […]
(§5) The toxigenic effect as a result of in situ generation of parental drug in cell culture was determined by incubating all cells in tissue culture media containing 0.1% (v/v) DMSO and a) Pd^0, Au, or Pd/Au-resin (1 mg/mL for all cells tested, negative control); b) prodrug (negative control); or c) Pd^0, Au, or Pd/Au-resin (1 mg/mL for all cells)+prodrug (reaction assay). […]
(§6) A dose response study was performed for each cell line keeping the quantity of Pd^0 resin constant (0.8 mg/mL for U87G and 1 mg/mL for the rest of cell lines). […]

For data set [4], the system named is HCT116 cells. Put plainly: BOOM conversion: prodrug + Pd0-resins in cell culture, cell viability, HCT116. The format is cell-based, human. As to conditions: Pd0-resin 1 mg/mL, 30 μM prodrug. The method, then: as §3, §4, §5, §6
In another data set the test system is A549 cells. Nature of the data set: Prodrug safety dose-response cell viability (PrestoBlue), A549. The format is cell-based. As to conditions: Homo sapiens, 120 h, 5 days, no catalyst. On the procedure: as §1, §2
The next data set concerns T98 cells. Put plainly: Prodrug safety dose-response cell viability (PrestoBlue), T98. The format is cell-based. As to conditions: Homo sapiens, 120 h, 5 days, no catalyst. On the procedure:
as §1, §2

The subject of a further data set is DU145 cells. Nature of the data set: Prodrug safety dose-response cell viability (PrestoBlue), DU145. The format is cell-based. The following applies: Homo sapiens, DU-145, 120 h, 5 days, no catalyst. On the procedure:
as §1, §2

Another data set concerns A2780 cells. Nature of the data set: Prodrug safety dose-response cell viability (PrestoBlue), A2780. As to conditions: Homo sapiens, 120 h, 5 days, no catalyst. The format is cell-based. The method, then:
as §1, §2

Data set [5] relates to U87G cells. Nature of the data set: Prodrug safety dose-response cell viability (PrestoBlue), U87G. The following applies: Homo sapiens, 120 h, read-out: EC50 (cell viability). The format is cell-based, human. The method, then: as §1, §2
The test system of data set [6] is U87G cells. Nature of the data set: BOOM conversion: prodrug + Pd0-resins in cell culture, cell viability, U87G. The format is cell-based, human. The following applies: Pd0-resin, SN-38 prodrug. On the procedure:
Following 5 days treatment, cells were incubated with PrestoBlue™ Cell Viability Reagent (Life Technologies) for 60-90 min. Fluorescence intensity values were related to the untreated cells (100% cell viability). […] Cells incubated in 0.1% (v/v) DMSO in media were used as untreated cell control.
The toxigenic effect as a result of in situ generation of parental drug in cell culture was determined by incubating all cells in tissue culture media containing 0.1% (v/v) DMSO and a) Pd^0, Au, or Pd/Au-resin (1 mg/mL for all cells tested, negative control); b) prodrug (negative control); or c) Pd^0, Au, or Pd/Au-resin (1 mg/mL for all cells)+prodrug (reaction assay). Cells incubated in 0.1% (v/v) DMSO in media was used as an untreated cell reference standard (100% viability). A PrestoBlue® cell viability assay as described above was carried out and fluorescent intensities compared to the untreated cell control.
(§7) A dose response study was performed for each cell line keeping the quantity of Pd^0 resin constant (0.8 mg/mL for U87G and 1 mg/mL for the rest of cell lines). […] Fluorescence intensity values (detected using a PerkinElmer EnVision 2101 multilabel reader with excitation filter at 540 nm and emissions filter at 590 nm) were determined relative to the untreated cell control.

The subject of data set [7] is MiaPaCa2 cells. Put plainly: Prodrug safety dose-response cell viability (PrestoBlue), MiaPaCa2. As to conditions: relative to Gemcitabine. The format is cell-based, human. On the procedure: as §1, §2
Data set [8] has as its system MiaPaCa2 cells. Put plainly: BOOM conversion: prodrug + Pd0-resins in cell culture, cell viability, MiaPaCa2. The format is cell-based, human. The method, then: Cell viabilities for each prodrug provided as a combination with palladium is presented in FIG. 10 in the right of each set of two bars. Data for prodrug in the absence of palladium catalyst is also provided (the left bar of each set of two bars) for comparison along with negative controls (from left to right: DMSO, Pd^0 and Gemcitabine). Cells were incubated in tissue culture media containing 0.1% (v/v) DMSO and: Pd^0-resins (1 mg/mL, negative control); 0.03 μM of each prodrug (negative control); and Pd^0-resins (1 mg/mL)+0.03 μM of each prodrug (BOOM reaction assay). Cells incubated in 0.1% (v/v) DMSO in media were used as untreated cell control.
Following 5 days treatment, cells were incubated with PrestoBlue™ Cell Viability Reagent (Life Technologies) for 90 min. Fluorescence intensity values were related to the untreated cells (100% cell viability). Data are provided in FIG. 11 for cells incubated in tissue culture media containing 0.1% (v/v) DMSO and: Pd^0-resins (1 mg/mL, negative control); 0.003-0.3 μM of pPOBC-Gem (negative control); 0.003-0.3 μM of Gemcitabine (positive control); and Pd^0-resin (1 mg/mL)+pPOBC-Gem (BOOM reaction assay). Cells incubated in 0.1% (v/v) DMSO in media were used as untreated cell control.
The toxigenic effect as a result of in situ generation of parental drug in cell culture was determined by incubating all cells in tissue culture media containing 0.1% (v/v) DMSO and a) Pd^0, Au, or Pd/Au-resin (1 mg/mL for all cells tested, negative control); b) prodrug (negative control); or c) Pd^0, Au, or Pd/Au-resin (1 mg/mL for all cells)+prodrug (reaction assay). Cells incubated in 0.1% (v/v) DMSO in media was used as an untreated cell reference standard (100% viability). […]
as §7

What is called EC50 is the concentration needed to bring the measured effect to its halfway point. For the molecule `C#CCOc1ncc(F)c(OCC#C)n1` [Bis-Pro-5FU, 2,4-bispropargyl-5-fluorouracil], the EC50 with BxPC3 cells [1] and with HCT116 cells [2] was more than 100000 nM throughout. Moreover, the “toxigenic effect of prodrug + Pd0 resins” value with BxPC3 cells [3] and with HCT116 cells [4] was “strong toxigenic effect” throughout.
As to `COc1cccc2c1C(=O)c1c(O)c3c(c(O)c1C2=O)C[C@@](O)(C(=O)CO)C[C@@H]3O[C@H]1C[C@H](N)[C@H](O)[C@H](C)O1` [Doxorubicin, reference compound], the EC50 in the data set on A549 cells is 105 nM; in the data set with T98 cells, 320 nM; in the data set with DU145 cells, 23 nM.
On to `C#CCOc1nnc(Cc2ccc(F)c(C(=O)N3CCN(C(=O)C4CC4)CC3)c2)c2ccccc12` [Prop-Olap, 4-[(3-[(4-cyclopropylcarbonyl)piperazin-4-yl]carbonyl)-4-fluorophenyl]methyl-phthalazin-1-oxypropargyl], for which the EC50 with A2780 cells was more than 100000 nM.
With `O=c1[nH]cc(F)c(=O)[nH]1` [5FU, 5-fluorouracil, reference compound], the EC50 in the data set on BxPC3 cells [1] amounted to 140 nM; in the data set on HCT116 cells [2], 1500 nM.
As for `O=C(c1cc(Cc2n[nH]c(=O)c3ccccc23)ccc1F)N1CCN(C(=O)C2CC2)CC1` [Olaparib, reference compound], the EC50 in the data set on A2780 cells worked out at 1870 nM.
Turning to `C#CCOc1cccc(OCC#C)c1COc1ccc2nc3c(c(CC)c2c1)Cn1c-3cc2c(c1=O)COC(=O)[C@]2(O)CC` [di-oPOB-SN-38, (S)-9-((2,6-bis(prop-2-yn-1-yloxy)benzyl)oxy)-4,11-diethyl-4-hydroxy-1,12-dihydro-14H-pyrano[3′,4′:6,7]indolizino[1,2-b]quinoline-3,14(4H)-dione], in the data set with U87G cells [5], the EC50 worked out at 3150 nM. The “toxigenic effect of prodrug + Pd0 resins” value with U87G cells [6] is “strong toxigenic effect”.
With `C#CCOc1ccc(COC(=O)Nc2ccn(C3OC(CO)C(O)C3(F)F)c(=O)n2)cc1` (stereo not shown) [pPOBC-Gem, 4-proparglyoxybenzylcarbamoyl Gemcitabine], the “reduction in the cytotoxic effect relative the parent active agent” value with MiaPaCa2 cells [7] is 27 fold. In addition, the EC50 in the data set with MiaPaCa2 cells [8] (Homo sapiens, MIA PaCa-2, 120 h, prodrug in combination with Pd0-resins 1 mg/mL, 5 days, read-out: EC50, prodrug + Pd-resins) came to 226 nM. In addition, in the data set on MiaPaCa2 cells [8] (Pd0-resin 1 mg/mL, 0.03 μM Gemcitabine prodrugs), the “toxigenic effect of prodrug + Pd0 resins” value was “strong toxigenic effect”.
